Data as given in patent US6720423B2, “Dihydrobenzofuran and dihydrobenzothiophene 2,4-pentadienoic acid derivatives having selective activity for retinoid X (RXR) receptors” (Allergan, Inc., priority 2002, dated 2004).

Assays:
RARα = target: T1, RARα (Homo sapiens, UniProt P10276); test: ligand binding assay, RARα; conditions: second entry of cell, read-out: RAR Bind. Ki (nM) α
T1 sequence (P10276 1-462): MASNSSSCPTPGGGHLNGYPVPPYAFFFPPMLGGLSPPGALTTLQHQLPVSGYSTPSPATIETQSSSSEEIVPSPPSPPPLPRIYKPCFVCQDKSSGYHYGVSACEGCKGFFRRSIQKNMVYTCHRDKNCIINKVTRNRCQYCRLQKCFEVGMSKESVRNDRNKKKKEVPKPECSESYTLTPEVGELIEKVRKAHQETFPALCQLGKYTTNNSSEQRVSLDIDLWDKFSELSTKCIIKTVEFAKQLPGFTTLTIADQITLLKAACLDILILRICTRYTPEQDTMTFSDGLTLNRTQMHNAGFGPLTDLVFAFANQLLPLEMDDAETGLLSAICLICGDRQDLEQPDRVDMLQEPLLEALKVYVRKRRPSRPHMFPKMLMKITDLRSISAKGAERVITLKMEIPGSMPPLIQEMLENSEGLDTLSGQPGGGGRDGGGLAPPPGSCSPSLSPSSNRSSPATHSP
Excerpt: (§1) A holoreceptor transactivation assay and a ligand binding assay which measure the antagonist/agonist like activity of the compounds of the invention, or their ability to bind to the several retinoid receptor subtypes, respectively, are described in published PCT Application No. WO WO93/11755 (particularly on pages 30-33 and 37-41) published on Jun. 24, 1993, the specification of which is also incorporated herein by reference. A detailed experimental procedure for holoreceptor transactivations has been described by Heyman et al. Cell 68, 397-406, (1992); Allegretto et al. J. Biol. Chem. 268, 26625-26633, and Mangelsdorf et al. The Retinoids: Biology, Chemistry and Medicine, pp 319-349, Raven Press Ltd., New York, which are expressly incorporated herein by reference. The results obtained in this assay are expressed in EC50 numbers, as they are also in the chimeric receptor transactivation assay. The results of ligand binding assay are expressed in Kd numbers. (See Cheng et al. Biochemical Pharmacology Vol. 22 pp 3099-3108, expressly incorporated herein by reference.)

RXRα = target: T2, RXRα (Homo sapiens, UniProt P19793); test: ligand binding assay, RXRα; conditions: last entry of cell, read-out: RXR Bind Ki (nM) α
T2 sequence (P19793 1-462): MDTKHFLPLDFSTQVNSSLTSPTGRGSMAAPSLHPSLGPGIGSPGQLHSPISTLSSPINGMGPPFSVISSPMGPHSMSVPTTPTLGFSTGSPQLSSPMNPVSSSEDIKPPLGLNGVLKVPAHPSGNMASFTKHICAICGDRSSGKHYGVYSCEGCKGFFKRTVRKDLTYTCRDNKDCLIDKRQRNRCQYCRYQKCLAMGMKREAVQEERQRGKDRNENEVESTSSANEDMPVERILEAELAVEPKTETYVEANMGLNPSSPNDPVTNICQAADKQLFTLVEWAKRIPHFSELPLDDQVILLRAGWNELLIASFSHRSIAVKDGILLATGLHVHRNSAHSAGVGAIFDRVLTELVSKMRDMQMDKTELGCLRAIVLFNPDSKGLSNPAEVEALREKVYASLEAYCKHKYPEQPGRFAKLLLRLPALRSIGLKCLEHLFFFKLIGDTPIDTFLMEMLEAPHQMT
Excerpt: as §1

RXRβ = target: T3, RXRβ (UniProt P28704); test: receptor transactivation assay, RXRβ; format: cell-based; set-up: RXR Trans; other: RXRβ; first entry of cell; conditions: for EC50: first entry of cell, read-out: RXR Trans. EC50 (nM) β; for RXR Trans. β, number in parentheses after EC50: parenthesised number, not defined in the patent
T3 sequence (P28704 1-520): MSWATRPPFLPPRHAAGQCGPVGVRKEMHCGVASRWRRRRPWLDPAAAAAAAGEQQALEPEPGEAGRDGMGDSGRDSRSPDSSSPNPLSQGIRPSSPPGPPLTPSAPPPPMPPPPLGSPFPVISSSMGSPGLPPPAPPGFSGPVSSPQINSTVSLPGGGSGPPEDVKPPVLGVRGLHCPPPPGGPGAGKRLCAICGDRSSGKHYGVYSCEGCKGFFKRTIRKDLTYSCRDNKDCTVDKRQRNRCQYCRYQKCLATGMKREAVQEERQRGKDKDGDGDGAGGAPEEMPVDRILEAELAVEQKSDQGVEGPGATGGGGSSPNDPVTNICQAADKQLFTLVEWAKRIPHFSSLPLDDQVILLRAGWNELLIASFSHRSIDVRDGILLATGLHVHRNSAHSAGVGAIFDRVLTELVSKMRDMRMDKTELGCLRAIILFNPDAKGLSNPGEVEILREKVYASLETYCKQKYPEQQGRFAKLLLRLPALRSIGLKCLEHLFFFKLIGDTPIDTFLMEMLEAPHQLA
Excerpt: as §1

Ki (RARα) [nM] | Ki (RXRα) [nM] | EC50 (RXRβ) [nM] | RXR Trans. β, number in parentheses after EC50 (RXRβ) | Structure (SMILES)
> 10000 | 7.1 | 12 | 108 | CC(/C=C/[C@@H]1C[C@]1(C)c1cc(Br)c2c(c1)C(C)(C)CO2)=C\C(=O)O [Compound 20, (6S,7S)-7-[5-(7-Bromo-3,3-dimethyl-2,3-dihydro-benzofuranyl)]-6,7-methano-3-methyl-octa-2E,4E-dienoic Acid]
11000 | 41 | 2040 | 103 | CCCCC(=O)CCc1cc([C@@]2(C)C[C@H]2/C=C/C(C)=C/C(=O)O)cc2c1OCC2(C)C [Compound 40]
> 10000 | 1.2 | 0.65 | 99 | CC(/C=C/[C@@H]1C[C@]1(C)c1cc(-c2ccccc2C)c2c(c1)C(C)(C)CO2)=C\C(=O)O [Compound 26, 5-[(1S,2S)-2-(3,3-Dimethyl-7-o-tolyl-2,3-dihydro-benzofuran-5-yl)-2-methyl-cyclopropyl]-3-methyl-penta-2E,4E-dienoic acid]
29000 | 66 | > 1000 | – | COc1ccc(-c2cc([C@@]3(C)C[C@H]3/C=C/C(C)=C/C(=O)O)cc3c2OCC3(C)C)cc1 [Compound 32, (E)-3-((E)-2-{(1S,2S)-2-[7-(4-Methoxy-phenyl)-3,3-dimethyl-2,3-dihydro-benzofuran-5-yl]-2-methyl-cyclopropyl}-vinyl)-but-2-enoic acid]
8720 | 0.8 | 0.515 | 114 | CC(/C=C/[C@@H]1C[C@]1(C)c1cc(Cc2ccccc2)c2c(c1)C(C)(C)CO2)=C\C(=O)O [Compound 14, (6S,7S)-7-[5-(7-Benzyl-3,3-dimethyl-2,3-dihydro-benzofuranyl)]-6,7-methano-3-methyl-octa-2E,4E-dienoic Acid]
11000 | 0.8 | 12 | 90 | CC(/C=C/[C@@H]1C[C@]1(C)c1cc(C(C)(C)C)c2c(c1)C(C)(C)CO2)=C\C(=O)O [Compound 10, (6S,7S)-7-[5-(3,3-Dimethyl-7-t-butyl-2,3-dihydro-benzofuranyl)]-6,7-methano-3-methyl-octa-2E,4E-dienoic acid]
> 10000 | 6.3 | 21 | 108 | CC(/C=C/[C@@H]1C[C@]1(C)c1cc(C)c2c(c1)C(C)(C)CO2)=C\C(=O)O [Compound 4, (6S,7S)-7-[5-(3,3,7-Trimethyl-2,3-dihydro-benzofuranyl)]-6,7-methano-3-methyl-octa-2E,4E-dienoic acid]
18000 | 0.2 | 1.67 | 93 | CC(/C=C/[C@@H]1C[C@]1(C)c1cc(CC(C)(C)C)c2c(c1)C(C)(C)CO2)=C\C(=O)O [Compound 12, 5-{(1S,2S) 2-[7-(2,2-Dimethyl-propyl)-3,3-dimethyl-2,3-dihydro-benzofuran-5-yl]-2-methyl-cyclopropyl}-3-methyl-penta-2E,4E-dienoic Acid]
> 10000 | 7.8 | 9.8 | 106 | CC(/C=C/[C@@H]1C[C@]1(C)c1ccc2c(c1)C(C)(C)CO2)=C\C(=O)O [Compound 2, (6S,7S)-7-[5-(3,3-Dimethyl-2,3-dihydro-benzofuranyl)]-6.7-methano-3-methyl-octa-2E,4E-dienoic Acid]
